The results in this text go back to article PMC7467771, “Lipophilic Arginine Esters: The Gateway to Preservatives without Side Effects” (Molecular Pharmaceutics, 2020).

Molecules are shown by their SMILES.

The subject of this series is Caco-2 cells. Briefly: resazurin assay, cytotoxicity. The series is classed as cell-based. The following applies: for cytotoxicity (samples showing >80% cell viability considered nontoxic): Caco-2, 4 h incubation, at 3000 μg mL^–1; for EC50: Homo sapiens, Caco-2, 4 h, read-out: EC50 (concentration causing 50% cell death). As for the experimental part:
The resazurin assay was used to determine the cytotoxic potential of Arg-esters according to a previous method with some minor modifications.[15] Caco-2 cells were seeded in a 24-well cell culture plate at 25 000 cells per well density and kept in an incubator at 37 °C under a 95% relative humidity environment and 5% CO2 level. Minimum essential medium (MEM) supplemented with streptomycin (0.1 mg […]), penicillin (100 units […]), and fetal calf serum (FCS) 10% (v/v) was used for growing cells. During a growth period of 14 days, the medium was replaced every other day. On the day of the experiment, test solutions of Arg-OL and Arg-DT esters were prepared in 25 mM HBS (HEPES buffered saline) buffer (pH 7.4) in the concentration range of 1000–3000 μg mL^–1. For comparison, the same concentrations of BAC and cetrimide were also prepared in HBS. HBS without any addition was used as a positive control, and Triton X-100 (2%, v/v) in HBS was used as a negative control. The growth medium from all wells of the cell culture plate was removed, and cells were washed three times with HBS preheated at 37 °C. Each test solution and controls were then added to individual wells in a volume of 500 μL, and the cell culture plate was incubated under the same conditions. After 4 h, the solution from each well was removed, and cells were washed with HBS (pH 7.4) preheated at 37 °C. Then, 500 μL of resazurin (2.2 mM) per well was added and incubated for further 3 h under the same conditions. Afterward, the fluorescence of the supernatant from each well was measured at the excitation wavelength of 540 nm and an emission wavelength of 590 nm. Cell viability was calculated by the equation: [drawing 4]
Background: The colour change of resazurin is a common sign of viable cells or microbes.

Consider `CCCCCCCCCCCCC(CCCCCCCCCC)COC(=O)[C@@H](N)CCCNC(=N)N.O=C(O)C(F)(F)F` (stereo partly shown) [Arg-DT, 2-Decyltetradecyl Argininate Trifluoroacetate], for which the “cytotoxicity (samples showing >80% cell viability considered nontoxic)” value was “noncytotoxic” and the EC50 turned out to be 4500 µg/mL.
The corresponding values for `CCCCCCCCC=CCCCCCCCCOC(=O)[C@@H](N)CCCNC(=N)N.O=C(O)C(F)(F)F` [Arg-OL, Octadec-9-en-1-yl Argininate Trifluoroacetate] are “cytotoxic” and 2600 µg/mL.
